Source: patent US10774049B2, “PU.1 inhibitors” (Albert Einstein College of Medicine, priority 2016, dated 2020)
Where a name gives a salt, the structure may show the parent alone.

Key:
PU.1 transactivation = assay: GFP reporter expression in bone marrow mononuclear cells of PU.1-GFP knock-in reporter mouse; assay type: cell-based; settings: PU.1-GFP knock-in bone marrow mononuclear cells
From the text: To assess on-target activity of our inhibitors in AML cells, we measured transcript levels of well-known PU.1 targets in PU.1 URE^−/− AML cells. It has been shown that PU.1 positively regulates Csf1r, Junb, and autoregulates itself, whereas it represses E2f1. In line with this, we found a decrease in Csf1r, Junb, and PU.1 transcript expression and an increase in E2f1 expression upon treatment with DB2115, or DB2313 (FIG. 4A, left panel). As Csf1r is one of the most sensitive PU.1 targets in myeloid cells, we assessed its expression at different time points (1 h, 4 h, 8 h and 24 h) after drug treatment. […] Furthermore, treatment of bone marrow mononuclear cells isolated from a PU.1-GFP knock-in reporter mouse model led to a decrease in GFP reporter expression after treatment with DB1976, DB2115, or DB2313, further confirming a direct effect of the compounds on PU.1 transactivation (FIG. 4B), and consistent with PU.1 positive autoregulation.

LSK cells = assay: Colony assay of Lin−Sca1+c-Kit+ (LSK) cells from wildtype mice; assay type: cell-based
Description: FIG. 5A-5F. PU.1 inhibitors decrease the granulo-monocytic potential of hematopoietic stem and progenitor cells, which is rapidly reversible. (A-C) Lin-Sca1+c-Kit+(LSK) cells were plated in semi-solid media containing PU.1 inhibitors. (A) Number of colony-forming unit granulocyte (CFU-G), monocyte (CFU-M), granulo/monocyte (CFU-GM), granulo/erythrocyte/monocyte/megakaryocyte (CFU-GEMM), burst or colony forming unit erythroid (B/CFU-E) and immature colonies after treatment. Detailed histograms of CFU-GM, CFU-G and CFU-M numbers are shown. Data represent the means±SD of 3 independent experiments. (B) Cells coming from colony assays after vehicle or DB2313 treatment. Cells were cytospun and stained with May-Grünwald Giemsa. Scale bar is equal to 20 μm. (C) FACS analysis showing the percentage of CD11b+Gr1−, CD11b+Gr1+, CD11b−Gr1+, CD41+Ter119−, CD41+Ter119+, CD41−Ter119+ populations after colony assays. Data represent the means±SD of 4 independent experiments. (D,E) Cells coming from colony assays treated with DB2313 were replated in the presence (+DB2313) or in the absence of DB2313 (−DB2313) and the percentage of CD11b+Gr1−, CD11b+Gr1+ cells was assessed one week later after culture in semi-solid media. (D) Representative FACS plots (E) Percentage of CD11b+Gr1− and CD11b+Gr1+ populations. Data represent the means±SD of 3 independent experiments; fold change compared to replating with DB2313 is shown. (F) Serial replating assay with D2313 continuous treatment (n=3). Data represent the means±SD of technical triplicate from one representative experiment. *P<0.05, **P<0.01, ***P<0.001,
In order to determine the effect of our PU.1 inhibitors on normal hematopoietic differentiation, we sorted immature Lin^−Sca1^+c-Kit^+ (LSK) cells from wildtype mice and studied their clonogenic potential following treatment with either DB1976, DB2115, or DB2313. […] Overall, the numbers of viable cells per colony were reduced upon PU.1 inhibitor treatment, again consistent with an effect of PU.1 inhibition on more mature, differentiating cells. […]

[1] = system: PU.1 targets Csf1r, Junb, PU.1, E2f1; assay: Quantitative RT-PCR of PU.1 target transcripts in PU.1 URE−/− AML cells; assay type: cell-based, murine
Description: FIG. 3A-3G. Novel inhibitors show on-target PU.1 inhibitory activity. (A) Quantitative RT-PCR analysis of Csf1r, Junb, Sfpi1, E2f1 expression after 72 h (n=6) and, for Csf1r, after 1 h (n=3), 4 h (n=7), 8 h (n=3) and 24 h (n=3) of treatment with the small molecules in URE−/− cells, expression is normalized to GAPDH expression. Data represent means±SD of technical triplicate from one representative experiment; fold change compared to Vehicle is shown. (B) Chromatin immunoprecipitation assay showing PU.1 occupancy on E2f1, Junb, Csf1r promoters after treatment in Umsh cell line (n=5). 10·10^6 cells were collected for each condition after 8 h treatment with a double dose of the small molecules (50 uM for DB1976, 1.4 uM for DB2115 and 660 nM for DB2313) or Vehicle; and processed for ChIP using PU.1 monoclonal antibody. Myogenin was used as a negative control, not regulated by PU.1. Data represent means±SD of technical triplicate from one representative experiment. (C) Cell viability after PU.1 rescue in MOLM13 cells. MOLM13 were transduced with a lentiviral construct expressing either PU.1-GFP (PU.1, black bar) or GFP as a control (empty, white bar), sorted on GFP and plated with DB1976 (n=7), DB2115 (n=8), DB2313 (n=6) or Vehicle. Cell count was performed after 4 days. Data represent means±SD of technical triplicate from one representative experiment; fold change compared to Vehicle is shown. (D-G) Transcriptome analysis of URE−/− cells after 24 h of treatment with DB2313 versus vehicle (n=3). Differentially expressed genes were determined with a fold change at 1.2 and a P value <0.1. (D) Enrichment in genes directly regulated by PU.1 or in genes regulated by the other ETS transcription factors Ets1, Gabpa, Spi-B, Fli-1, using Ingenuity Knowledge Base. The red dotted line represents the significance threshold (−log (P value)>1.3). (E,F) Comparison analysis of deregulated genes in URE−/− cells after DB2313 treatment and in PUER cells after PU.1 induction (GSE13125). Deregulated gens in PUER cells were analyzed with a FC at 1.5 and P-value <0.05. (E) Significant overlap between the 2 datasets, with 484 genes commonly deregulated. P-value was calculated using the hypergeometric test. (F) Comparative analysis of deregulated canonical pathways between the 2 datasets (z-score >2 for PUER dataset). Colored squares indicate activation z-score. (G) Enrichment of PU.1 binding at promoters of all, up- and down-deregulated genes after DB2313 treatment. […]
To assess on-target activity of our inhibitors in AML cells, we measured transcript levels of well-known PU.1 targets in PU.1 URE^−/− AML cells. […] As Csf1r is one of the most sensitive PU.1 targets in myeloid cells, we assessed its expression at different time points (1 h, 4 h, 8 h and 24 h) after drug treatment. […]

[2] = second plating, vs replating with compound

Row | Compound | GFP reporter expression (PU.1 transactivation) | toxicity on LSK cells (LSK cells; majority of colonies unidentifiable, majority of dead cells) | Csf1r, Junb, and PU.1 transcript expression [1] | E2f1 expression [1] | increase of production of mature granulocytes after removing the treatment (LSK cells; [2]) | increase of production of mature monocytes after removing the treatment (LSK cells; [2])
1 | N=C(N)c1ccc2nc(-c3ccc(-c4nc5ccc(C(=N)N)cc5[nH]4)[se]3)[nH]c2c1 [DB1976] | decrease | appeared to show toxicity |  |  |  | 
2 | N=C(N)c1ccc2nc(-c3ccc(OCCCCOc4ccc(-c5nc6ccc(C(=N)N)cc6[nH]5)cc4)cc3)[nH]c2c1 [DB2115] | decrease |  | decrease | increase |  | 
3 | CC(C)NC(=N)c1ccc2nc(-c3ccc(OCc4cccc(COc5ccc(-c6nc7ccc(C(=N)NC(C)C)cc7[nH]6)cc5)c4F)cc3)[nH]c2c1 [DB2313, 3-Bis{4[4(5)-N-isopropylamidinobenzimidazolyl]phenoxymethyl]}-2-fluorobenzene tetrahydrochloride] | decrease |  | decrease | increase | 4 fold | 22 fold
